Data on two compounds can be found in patent US20070104803A1, “Chinese herbal composition for treating diseases” (Kaohsiung Medical University, priority 2005, published 2007).

Type in all cases: in vivo, rat
Experiment [1] has as its system Wistar rats. Description: Acute survival study after LPS. The method, then: (§1) The animal experiment is approved by the Animal Care and Use Committee at the Kaohsiung Medical University. The male Wistar rats, weighing 250-350 g, are provided by the National Laboratory Animal Breeding and Research Center (Taipei, Taiwan). The rats are housed under conditions of constant temperature and controlled illumination (light regime of 12 h light and 12 h darkness). The rats are allowed food and water ad libitum. They are anesthetized with an intraperitoneal (i.p.) injection of pentobarbital sodium (50 mg/kg). Following tracheal cannulation, systemic arterial blood pressure and heart rate are recorded from the femoral artery with a pressure transducer (Spectramed, Model P10EZ, USA). Body temperature is maintained at 37° C. by an electric heating pad. A femoral vein is cannulated for the administration of LPS (E. coli serotype 026:B6), HBCM, baicalin, or dexamethasone (DEXA), respectively. The rats are injected intravenously with either saline (0.1 ml/kg) or LPS (10 mg/kg) for control and experimental purposes, respectively. All the animals are assigned to one of the following groups: saline only, LPS/saline, LPS/HBCM (75 mg/kg), LPS/baicalin (1.5 mg/kg), and LPS/DEXA (0.5 mg/kg) groups. LPS is injected at a dose of 10 mg/kg, after 10 min, HBCM, baicalin and DEXA are given, respectively.
A single injection of LPS (10 mg/kg, i.v.) leads to a biphasic arterial hypotension: an initial and transient decrease in arterial mean blood pressure (about 10 min), followed by a delayed and prolonged hypotension. The HBCM (75 mg/kg, i.v.), baicalin (1.5 mg/kg, i.v.) and DEXA (0.5 mg/kg, i.v.) are administrated 10 min after LPS administration. The used dose of baicalin is according to the content of baicalin in HBCM by the HPLC method. Separate groups are used for acute survival study (n=10 each), lung tissue sampling (n=10 each), and blood sampling (n=10 each). […]
The animals without pulmonary are monitored per 30 minutes for 7 hours after LPS administration. The blood pressure (BP) changes were recorded within 5 hours after LPS injection. […]

Experiment [2] concerns Wistar rats. The experiment can be described thus: Attenuation of LPS-induced arterial hypotension (post-treatment). The following applies: HBCM 75 mg/kg, baicalin 1.5 mg/kg, DEXA 0.5 mg/kg i.v. 10 min after LPS 10 mg/kg i.v.; FIG. 3. The method, then: as §1, with “given, respectively. […]” for “given, respectively.”
For experiment [3], the system named is Wistar rats. The experiment can be described thus: LPS-induced lung edema (wet/dry weight ratio). To be noted: 5 hours after LPS; HBCM, baicalin, DEXA given 10 min after LPS; FIG. 7. How it is done:
as §1, with “The rats are injected intravenously with either saline (0.1 ml/kg) or LPS (10 mg/kg) for control and experimental purposes, respectively. All the animals are assigned to one of the following groups: saline only, LPS/saline, LPS/HBCM (75 mg/kg), LPS/baicalin (1.5 mg/kg), and LPS/DEXA (0.5 mg/kg) groups. LPS is injected at a dose of 10 mg/kg, after 10 min, HBCM, baicalin and DEXA are given, respectively.” left out
The water content of the lungs is determined by calculating the wet/dry weight ratio of lung tissues at 5 hours after LPS administration. […] The dry weight is determined after the lung is dried at 80° C. for 72 hours, and the edema index (wet/dry weight ratio) is calculated by dividing the wet weight by the dry weight. The edema index indicates the water content of the lung, which is determined by calculating the wet/dry weight ratio of lung tissues at 5 hours after LPS administration.

A further experiment relates to iNOS. Description: LPS-induced iNOS in lung tissues (western blot). To be noted: 5 h after LPS 10 mg/kg; HBCM 75, baicalin 1.5, DEXA 0.5 mg/kg post-treatment; FIG. 8. The method, then:
as §1, with “All the animals are assigned to one of the following groups: saline only, LPS/saline, LPS/HBCM (75 mg/kg), LPS/baicalin (1.5 mg/kg), and LPS/DEXA (0.5 mg/kg) groups. LPS is injected at a dose of 10 mg/kg, after 10 min, HBCM, baicalin and DEXA are given, respectively.” left out
(§2) The HBCM, baicalin and DEXA are post-treated 10 minutes after the administration of LPS. […] The expression of each protein is detected by enhanced chemiluminescence using Hyperfilm and ECL reagent (Amersham, UK).
Background: A western blot detects proteins with antibodies after separation by electrophoresis.

In experiment [4] the test system is phosphorylated p38 MAP kinase. Description: LPS-induced phosphorylated p38 MAP kinase in lung tissues (western blot). The following applies: 5 h after LPS 10 mg/kg; HBCM 75, baicalin 1.5, DEXA 0.5 mg/kg post-treatment; FIG. 8. The method, then:
as §1, with “All the animals are assigned to one of the following groups: saline only, LPS/saline, LPS/HBCM (75 mg/kg), LPS/baicalin (1.5 mg/kg), and LPS/DEXA (0.5 mg/kg) groups. LPS is injected at a dose of 10 mg/kg, after 10 min, HBCM, baicalin and DEXA are given, respectively.” left out
as §2

For the next experiment, the system named is TGF-β. Description: LPS-induced TGF-β in lung tissues (western blot). The following applies: 5 h after LPS 10 mg/kg; HBCM 75, baicalin 1.5, DEXA 0.5 mg/kg post-treatment; FIG. 8. How it is done:
as §1, with “All the animals are assigned to one of the following groups: saline only, LPS/saline, LPS/HBCM (75 mg/kg), LPS/baicalin (1.5 mg/kg), and LPS/DEXA (0.5 mg/kg) groups. LPS is injected at a dose of 10 mg/kg, after 10 min, HBCM, baicalin and DEXA are given, respectively.” left out
as §2

For a further experiment, the system named is ICAM-1. Description: LPS-induced ICAM-1 in lung tissues (western blot). To be noted: 5 h after LPS 10 mg/kg; HBCM 75, baicalin 1.5, DEXA 0.5 mg/kg post-treatment; FIG. 8. The method, then:
as §1, with “All the animals are assigned to one of the following groups: saline only, LPS/saline, LPS/HBCM (75 mg/kg), LPS/baicalin (1.5 mg/kg), and LPS/DEXA (0.5 mg/kg) groups. LPS is injected at a dose of 10 mg/kg, after 10 min, HBCM, baicalin and DEXA are given, respectively.” left out
as §2

In the next experiment the test system is TNF-α. The experiment can be described thus: LPS-induced plasma TNF-α immunoreactivity (post-treatment, ELISA). The following applies: LPS 10 mg/kg i.v.; HBCM 75, baicalin 1.5, DEXA 0.5 mg/kg 10 min after LPS; FIG. 9. The method, then: as §1, with “given, respectively. […]” for “given, respectively.”
For orientation: ELISA stands for enzyme-linked immunosorbent assay.

For another experiment, the system named is IL-1β. The experiment can be described thus: LPS-induced plasma IL-1β immunoreactivity (post-treatment, ELISA). To be noted: LPS 10 mg/kg i.v.; post-treatment 10 min after LPS; up to 5 hours; FIG. 9. The method, then: as §1, with “given, respectively. […]” for “given, respectively.”
A further experiment relates to MCP-1. The experiment can be described thus: LPS-induced plasma MCP-1 immunoreactivity (post-treatment, ELISA). The following applies: LPS 10 mg/kg i.v.; post-treatment 10 min after LPS; up to 5 hours; FIG. 9. The method, then:
as §1, with “given, respectively. […]” for “given, respectively.”

Consider `C[C@@H]1C[C@H]2[C@@H]3CCC4=CC(=O)C=C[C@]4(C)[C@@]3(F)[C@@H](O)C[C@]2(C)[C@@]1(O)C(=O)CO` [DEXA, dexamethasone], for which, in the experiment with Wistar rats [1] (LPS 10 mg/kg, DEXA 0.5 mg/kg i.v. 10 min after LPS, n=10), the “time all the rats survive” value was “more than 7 hours”.

`O=C(O)[C@H]1O[C@@H](Oc2cc3oc(-c4ccccc4)cc(=O)c3c(O)c2O)[C@H](O)[C@@H](O)[C@@H]1O` [baicalin]: in the experiment on Wistar rats [2], the “LPS-induced prolonged arterial hypotension” value was “significantly attenuates”. Besides, in the experiment with Wistar rats [1] (LPS 10 mg/kg, HBCM 75 mg/kg or baicalin 1.5 mg/kg i.v. 10 min after LPS, n=10), the “survival for 7 hours” value is reported as 90%. For the same compound, the “survival rate compared with LPS/saline group” value in the experiment with Wistar rats [1] (post-treatment 10 min after LPS 10 mg/kg, FIG. 6) was “significantly better survival rate”. The “LPS-induced lung edema (wet/dry weight ratio)” value in the experiment with Wistar rats [3] is reported as “significantly attenuates”. Also, the “LPS-induced iNOS expression in lung tissues” value in the experiment with iNOS was “significant inhibition”. In addition, the “LPS-induced phosphorylated p38 MAP kinase expression in lung tissues” value in experiment [4] is “significant inhibition”. Besides, the “LPS-induced TGF-β expression in lung tissues” value in the experiment on TGF-β is “significant inhibition”. Besides, in the experiment on ICAM-1, the “LPS-induced ICAM-1 expression in lung tissues” value is on record as “significant inhibition”. Also, the “elevation of plasma TNF-α vs LPS/saline group” value in the experiment on TNF-α was “significantly lower”. Besides, in the experiment on IL-1β, the “elevation of plasma IL-1β vs LPS/saline group” value is on record as “lower”. Besides, in the experiment on MCP-1, the “elevation of plasma MCP-1 vs LPS/saline group” value is listed as “lower”.
